Results published in US20260199350A1, “FLAVONES, QUINOLINONES, QUINAZOLINONES, AND AURONES, AND USES IN CK2-MEDIATED DISEASES” (Salk Institute for Biological Studies, priority 2022, published 2026).
Values after ≈ are worked out from the molar mass of the structure shown. Read-outs that look alike come from different tables or passages of the source.

Key:
[1] = biological target: T1, CK2A2 (Homo sapiens, UniProt P19784); assay: Radiometric kinase assay (Eurofins), CK2A2; type: biochemical
T1 construct: purchased Eurofins
T1 sequence (P19784 whole entry): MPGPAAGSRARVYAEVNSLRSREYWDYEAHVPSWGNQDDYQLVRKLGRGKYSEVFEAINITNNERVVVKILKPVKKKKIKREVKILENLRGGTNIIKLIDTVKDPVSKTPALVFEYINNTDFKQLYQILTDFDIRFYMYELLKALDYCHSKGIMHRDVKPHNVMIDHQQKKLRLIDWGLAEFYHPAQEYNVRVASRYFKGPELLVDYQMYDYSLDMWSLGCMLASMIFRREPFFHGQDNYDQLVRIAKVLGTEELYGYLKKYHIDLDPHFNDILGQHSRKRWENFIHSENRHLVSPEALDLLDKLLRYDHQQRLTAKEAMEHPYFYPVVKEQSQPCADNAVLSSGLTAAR
From the text: (§1) • ^1Radiometric kinase assay from Eurofins. Performed in astrocytes with a Promega Lumit IL-6 kit.

[2] = system: IL-6 secretion; assay: IL-6 secretion assay in astrocytes (Promega Lumit IL-6 kit); type: cell-based, human; details: Homo sapiens, Astrocyte, read-out: IL6-Inhib.
Protocol: IL-6 secretion assay. HCAs were plated at 20,000 cells per well in white clear bottom 96-well plates. Two to three days later, media was removed and replaced with media containing 10 ng/mL IL1B and compound dilution series. Five hours later, plates were processed using the Lumit IL-6 Assay Kit (Promega W6030) according to the manufacturer's instructions.
• ^1Radiometric kinase assay from Eurofins. Performed in astrocytes with a Promega Lumit IL-6 kit. A series of halogenated flavones was generated and assayed (Table 3).

[3] = biological target: T2, CK2A1 (Homo sapiens, UniProt P68400); assay: Radiometric kinase assay (Eurofins), CK2A1; type: biochemical
T2 construct: purchased Eurofins
T2 sequence (P68400 whole entry): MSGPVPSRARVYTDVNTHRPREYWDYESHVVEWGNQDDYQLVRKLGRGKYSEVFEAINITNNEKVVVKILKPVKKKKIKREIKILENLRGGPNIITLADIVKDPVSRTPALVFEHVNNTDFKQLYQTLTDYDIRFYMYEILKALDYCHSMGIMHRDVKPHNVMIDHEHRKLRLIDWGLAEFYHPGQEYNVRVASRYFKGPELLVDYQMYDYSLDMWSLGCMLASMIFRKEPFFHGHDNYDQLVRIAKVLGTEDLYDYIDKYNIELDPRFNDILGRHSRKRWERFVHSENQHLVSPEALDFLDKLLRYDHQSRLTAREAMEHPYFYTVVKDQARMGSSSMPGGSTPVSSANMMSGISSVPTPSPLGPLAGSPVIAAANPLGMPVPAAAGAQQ
From the text: FIGS. 4A-4F characterize flavones for in vitro and in-cell CK2 inhibition. […] Representative of two independent experiments. […] Nonlinear fit was used to calculate IC50. […] Nonlinear fit was used to calculate IC50. […] Nonlinear fit was used to calculate IC50. […] Normalized to DMSO, data are representative of three independent experiments.
as §1

[4] = Aqueous solubility; type: physicochemical
[5] = Table 2, read-out: CK2A2 RAD IC50
[6] = Table 2, read-out: CK2A1 RAD IC50
[7] = Table 10, aurones, read-out: CK2A2 IC50
[8] = Table 10, aurones, read-out: CK2A1 IC50
[9] = aqueous (not further specified), Table 3, read-out: Aqueous Solubility
[10] = Table 3, halogenated flavones, read-out: CK2A2 RAD IC50
[11] = Table 3, halogenated flavones, read-out: CK2A1 RAD IC50

Structure (SMILES) | IC50 [1, 5] [nM] | IC50 ([2]; Table 2, astrocytes) [nM] | IC50 [3, 6] [nM] | solubility ([4]; Table 10, read-out: Solubility) [µM] | IC50 [1, 7] [nM] | IC50 ([2]; Table 10) [nM] | IC50 [3, 8] [nM] | also measured
O=c1cc(-c2ccc(O)c(Br)c2)oc2c(Br)cc(Br)cc12 [JKT.464A] | 3 | 5000 | 19 |  |  |  |  | 
O=c1cc(-c2cc(Cl)c(O)c(Cl)c2)oc2c(Br)cc(Br)cc12 [JKT.465A] | 45 | 4900 | 134 |  |  |  |  | 
Cc1cc(-c2cc(=O)c3cc(Br)cc(Br)c3o2)ccc1O [JKT.475A] | 2060 | > 10000 | > 5000 |  |  |  |  | 
COc1nc(-c2cc(=O)c3cc(Br)cc(Br)c3o2)ccc1O [JKT.606A] | 4 | 3500 | 9 |  |  |  |  | 
O=C1/C(=C/c2ccc(O)cc2)Oc2c(Br)cc(Br)cc21 [JKT.629A] |  |  |  | 5.6 (≈ 2.22 µg/mL) | > 5000 | 7900 | > 5000 | 
COc1cc(/C=C2\Oc3c(Br)cc(Br)cc3C2=O)ccc1O [JKT.630A] |  |  |  | 3 (≈ 1.28 µg/mL) | 274 | 9800 | 211 | 
O=C1/C(=C/c2cccc(O)c2)Oc2c(Br)cc(Br)cc21 [JKT.631A] |  |  |  | 22.6 (≈ 8.95 µg/mL) | > 5000 | > 10000 | > 5000 | 
N#Cc1ccc(/C=C2\Oc3c(Br)cc(Br)cc3C2=O)cc1 [JKT.632A] |  |  |  | > 200 | > 5000 | 10000 | > 5000 | 
O=C1/C(=C/c2ccc(-c3nnn[nH]3)cc2)Oc2c(Br)cc(Br)cc21 [JKT.633A] |  |  |  | 102 (≈ 45.8 µg/mL) | > 5000 | > 10000 | > 5000 | 
O=C1/C(=C/c2ccc(O)c(Br)c2)Oc2c(Br)cc(Br)cc21 [JKT.634A] |  |  |  | 25.5 (≈ 12.1 µg/mL) | 46 | 2000 | 22 | Inhibition of CK2A2 ([1]; in words): potent inhibition of both; Inhibition of CK2A1 ([3]; in words): potent inhibition of both
O=C1/C(=C/c2ccc(O)c(C(F)(F)F)c2)Oc2c(Br)cc(Br)cc21 [JKT.635A] |  |  |  | 22 (≈ 10.2 µg/mL) | 213 | 1800 | 531 | 
O=C(O)c1ccc(/C=C2\Oc3c(Br)cc(Br)cc3C2=O)cc1 [JKT.636A] |  |  |  | > 200 | 62 | > 10000 | 537 | Window of selectivity for CK2A2 over CK2A1 [1]: nine-fold
O=C1/C(=C/c2ccco2)Oc2c(Br)cc(Br)cc21 [JKT.637A] |  |  |  | 52.4 (≈ 19.4 µg/mL) | > 5000 | > 10000 | > 5000 | 
O=C1/C(=C/c2ccoc2)Oc2c(Br)cc(Br)cc21 [JKT.638A] |  |  |  | 30.2 (≈ 11.2 µg/mL) | > 5000 | > 10000 | > 5000 | 
COc1nc(-c2cc(=O)c3cccc(Br)c3o2)ccc1O [JKT.666A] | 8 | 2000 | 5 |  |  |  |  | 
COc1nc(-c2cc(=O)c3cc(Cl)cc(Br)c3o2)ccc1O [JKT.669A] | 5 | 2900 | 7 |  |  |  |  | 
COc1nc(-c2cc(=O)c3cc(Cl)cc(Cl)c3o2)ccc1O [JKT.678A] | 8 | 3600 | 17 |  |  |  |  | 
COc1cc(-c2cc(=O)c3cc(Br)c(OC)c(Br)c3o2)ccc1O [JKT.706A] | 49 | 8600 | 247 |  |  |  |  | 
O=c1cc(-c2ccc(O)c(Br)c2)oc2c(Br)cc(Cl)cc12 [JKT.714A] |  |  |  |  |  |  |  | solubility [4, 9]: 35.2 µM (≈ 15.2 µg/mL); IC50 [1, 10]: 8 nM; IC50 ([2]; Table 3): 4600 nM; IC50 [3, 11]: 12 nM
O=c1cc(-c2ccc(O)c(Br)c2)oc2c(Cl)cc(Cl)cc12 [JKT.715A] |  |  |  |  |  |  |  | solubility [4, 9]: 120 µM (≈ 46.2 µg/mL); IC50 [1, 10]: 16 nM; IC50 ([2]; Table 3): 4100 nM; IC50 [3, 11]: 18 nM
O=c1cc(-c2ccc(O)c(Cl)c2)oc2c(Br)cc(Br)cc12 [JKT.721A] |  |  |  |  |  |  |  | solubility [4, 9]: 19.6 µM (≈ 8.44 µg/mL); IC50 [1, 10]: 5 nM; IC50 ([2]; Table 3): 2600 nM; IC50 [3, 11]: 10 nM
O=c1cc(-c2ccc(O)c(Cl)c2)oc2c(Br)cc(Cl)cc12 [JKT.722A] |  |  |  |  |  |  |  | solubility [4, 9]: 27.5 µM (≈ 10.6 µg/mL); IC50 [1, 10]: 7 nM; IC50 ([2]; Table 3): 2200 nM; IC50 [3, 11]: 10 nM
O=c1cc(-c2ccc(O)c(I)c2)oc2c(Br)cc(Br)cc12 [JKT.724A] |  |  |  |  |  |  |  | solubility [4, 9]: 11.2 µM (≈ 5.85 µg/mL); IC50 [1, 10]: 7 nM; IC50 ([2]; Table 3): 3800 nM; IC50 [3, 11]: 19 nM
